Measurements as given in PubChem BioAssay (NCI).
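Abbreviation: GI50, concentration required for 50% inhibition of growth. TGI: concentration producing complete growth inhibition.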

Assays:
Assay in all cases: NCI-60 cell line screen, 384-well format
[1] = test system: PC-3 prostate
[2] = test system: COLO 205 colon
[3] = test system: HS 578T breast
[4] = test system: OVCAR-4 ovarian
[5] = test system: UACC-257 melanoma
[6] = test system: HCC-2998 colon
[7] = test system: IGROV1 ovarian
[8] = test system: A549 NSCLC
[9] = test system: HCT-116 colon
[10] = test system: M14 melanoma
[11] = test system: NCI-H23 lung
[12] = test system: SW-620 colon
[13] = test system: UO-31 renal
[14] = test system: MDA-MB-468 breast
[15] = test system: HL-60(TB) leukemia
[16] = test system: NCI-H460 NSCLC
[17] = test system: 786-0 renal
[18] = test system: OVCAR-8 ovarian
[19] = test system: NCI/ADR-RES ovarian
[20] = test system: U251 glioblastoma
[21] = test system: HCT-15 colon
[22] = test system: NCI-H226 lung
[23] = test system: BT-549 breast
[24] = test system: SK-OV-3 ovarian
[25] = test system: TK-10 renal
[26] = test system: A498 renal
[27] = test system: MALME-3M melanoma
[28] = test system: MDA-MB-231 breast
[29] = test system: SK-MEL-5 melanoma
[30] = test system: OVCAR-5 ovarian
[31] = test system: OVCAR-3 ovarian
[32] = test system: SF-539 CNS
[33] = test system: CCRF-CEM leukemia
[34] = test system: SF-268 CNS
[35] = test system: MCF7 breast
[36] = test system: MDA-MB-435 melanoma
[37] = test system: SK-MEL-28 melanoma
[38] = test system: SR leukemia
[39] = test system: ACHN renal
[40] = test system: HT29 colon
[41] = test system: DU-145 prostate
[42] = test system: HOP-92 NSCLC
[43] = test system: HOP-62 NSCLC
[44] = test system: NCI-H522 lung
[45] = test system: CAKI-1 renal
[46] = test system: RPMI-8226 leukemia
[47] = test system: SN12C renal
[48] = test system: SF-295 CNS
[49] = test system: EKVX NSCLC
[50] = test system: KM12 colon
[51] = test system: RXF 393 renal
[52] = test system: T-47D breast
[53] = test system: SNB-75 CNS
[54] = test system: MOLT-4 leukemia
[55] = test system: NCI-H322M lung
[56] = test system: LOX IMVI melanoma
[57] = test system: UACC-62 melanoma
[58] = test system: SNB-19 CNS

Nc1cccc2c1C(=O)N(C1CCC(=O)NC1=O)C2=O (stereo not given)
GI50 [1]: > 100 µM
TGI [1]: > 100 µM
GI50 [2]: > 100 µM
TGI [2]: > 100 µM
GI50 [3]: > 100 µM
TGI [3]: > 100 µM
GI50 [4]: > 100 µM
TGI [4]: > 100 µM
GI50 [5]: > 100 µM
TGI [5]: > 100 µM
GI50 [6]: > 100 µM
TGI [6]: > 100 µM
GI50 [7]: > 100 µM
TGI [7]: > 100 µM
GI50 [8]: > 100 µM
TGI [8]: > 100 µM
GI50 [9]: > 100 µM
TGI [9]: > 100 µM
GI50 [10]: > 100 µM
TGI [10]: > 100 µM
GI50 [11]: > 100 µM
TGI [11]: > 100 µM
GI50 [12]: > 100 µM
TGI [12]: > 100 µM
GI50 [13]: > 100 µM
TGI [13]: > 100 µM
GI50 [14]: > 100 µM
TGI [14]: > 100 µM
GI50 [15]: > 100 µM
TGI [15]: > 100 µM
GI50 [16]: > 100 µM
TGI [16]: > 100 µM
GI50 [17]: > 100 µM
TGI [17]: > 100 µM
GI50 [18]: > 100 µM
TGI [18]: > 100 µM
GI50 [19]: > 100 µM
TGI [19]: > 100 µM
GI50 [20]: > 100 µM
TGI [20]: > 100 µM
GI50 [21]: > 100 µM
TGI [21]: > 100 µM
GI50 [22]: > 100 µM
TGI [22]: > 100 µM
GI50 [23]: > 100 µM
TGI [23]: > 100 µM
GI50 [24]: > 100 µM
TGI [24]: > 100 µM
GI50 [25]: > 100 µM
TGI [25]: > 100 µM
GI50 [26]: > 100 µM
TGI [26]: > 100 µM
GI50 [27]: > 100 µM
TGI [27]: > 100 µM
GI50 [28]: > 100 µM
TGI [28]: > 100 µM
GI50 [29]: > 100 µM
TGI [29]: > 100 µM
GI50 [30]: > 100 µM
TGI [30]: > 100 µM
GI50 [31]: > 100 µM
TGI [31]: > 100 µM
GI50 [32]: > 100 µM
TGI [32]: > 100 µM
GI50 [33]: > 100 µM
TGI [33]: > 100 µM
GI50 [34]: > 100 µM
TGI [34]: > 100 µM
GI50 [35]: > 100 µM
TGI [35]: > 100 µM
GI50 [36]: > 100 µM
TGI [36]: > 100 µM
GI50 [37]: > 100 µM
TGI [37]: > 100 µM
GI50 [38]: > 100 µM
TGI [38]: > 100 µM
GI50 [39]: > 100 µM
TGI [39]: > 100 µM
GI50 [40]: > 100 µM
TGI [40]: > 100 µM
GI50 [41]: > 100 µM
TGI [41]: > 100 µM
GI50 [42]: > 100 µM
TGI [42]: > 100 µM
GI50 [43]: > 100 µM
TGI [43]: > 100 µM
GI50 [44]: > 100 µM
TGI [44]: > 100 µM
GI50 [45]: > 100 µM
TGI [45]: > 100 µM
GI50 [46]: 22.9 µM
TGI [46]: > 100 µM
GI50 [47]: > 100 µM
TGI [47]: > 100 µM
GI50 [48]: > 100 µM
TGI [48]: > 100 µM
GI50 [49]: > 100 µM
TGI [49]: > 100 µM
GI50 [50]: > 100 µM
TGI [50]: > 100 µM
GI50 [51]: > 100 µM
TGI [51]: > 100 µM
GI50 [52]: > 100 µM
TGI [52]: > 100 µM
GI50 [53]: > 100 µM
TGI [53]: > 100 µM
GI50 [54]: > 100 µM
TGI [54]: > 100 µM
GI50 [55]: > 100 µM
TGI [55]: > 100 µM
TGI [56]: > 100 µM
GI50 [57]: > 100 µM
TGI [57]: > 100 µM
GI50 [58]: > 100 µM
TGI [58]: > 100 µM
